Test [1] concerns M. trichosporium OB3b culture. Kind of test: CP exposure of culture immobilized in alginate beads, sequencing batch reactors. The class given is cell-based. The following applies: for MeOH Accumulation Efficiency (MeOH accumulation/CH4 consumed): initial 24 hours of incubation with CH4. As to the method:
In some embodiments, M. trichosporium OB3b culture was immobilized in alginate beads. M. trichosporium OB3b culture expressing sMMO was harvested and suspended to a final density of 10 g cell protein/L in 2% alginate. The alginate/cell mixture was extruded through a syringe needle into 100 mM CaCl2 to crosslink the alginate matrix, forming stable beads. Beads were rinsed with dH2O and re-suspended in 1/10 strength (dilute) growth media. M. trichosporium OB3b culture prepared this way is ideal for experimental manipulation such as CH4 or MeOH rate determinations after inhibitor exposure because beads can be quickly rinsed to remove trace inhibitor. OB3b culture immobilized in alginate in this way maintained activity for >7 days.
A chemostat grown, sMMO expressing, M. trichosporium OB3b culture was immobilized in alginate beads, and exposed to CP for 2, 6, and 18 hours in the absence of CH4. After inhibition, the consumption of CH4 and accumulation of MeOH was monitored in the presence and absence of 20 mM formate in sequencing batch reactors (FIGS. 37A-37C). Alginate beads were rinsed, at 24 hour intervals, before suspension in fresh media plus CH4. There was no significant difference: i) in the rate of methane consumption in the treatments that were exposed to CP for 2, 6 or 18 h (p>0.5, 30-80 μmol CH4 consumed/d, Table 2); ii) in the efficiency of MeOH accumulation in any of the treatments (Table 2); and, in the effect of formate on MeOH accumulation (P>0.18) for any exposure time, probably due to lack of complete MDH inhibition (Table 3). It was also observed that MeOH accumulated to a greater degree during days 2 and 3 in treatments after 6 or 18 hours of CP exposure.

The subject of another test is OB3b expressing sMMO. Kind of test: Packed bed reactor with cyclopropane inhibitor. The class given is cell-based, Methylosinus trichosporium (OB3b). As to the method: A Packed Bed Reactor was used to evaluate the conversion of methane to methanol by cell of OB3b expressing sMMO. […] Cyclopropanol is expected to be produced via oxidation of cyclopropane by MMO in this example.
A continuous flow PBR was constructed using a glass HPLC column with the dimensions 2.5 cm ID and 13 cm packing height. Methane, oxygen, and the inhibitor feed solutions dissolved in media were contained within the two 100 mL syringes. The column was packed with alginate beads with sMMO-expressing OB3b formed in-situ under aseptic conditions Immobilized culture performance was evaluated in the PBR over a range of flow rates to achieve reactor residence times (τ) ranging from 0.2, 0.3, 0.5, and 8.5 hours. Two separate experiments were carried out, one for methane transformation (conversion) without the cyclopropane inhibitor and the other with the inhibitor (FIG. 26). For the methane utilization studies, the influent solution was developed by adding 7 mL methane and 21 mL oxygen to the 100 ml syringes. For the inhibition studies 1 ml of cyclopropane was added. After equilibration for 20 minutes, the gases were ejected from the syringes, and the syringes connected to the column inlet.
An integrated form of the Monod equation was used to analyze the results from the PBR experiment. It relates substrate conversion across a packed bed reactor, X, to the residence time, τ (min), and initial substrate concentration So (mg/L).
The solids lines in FIG. 26 were computed with the integrated Monod model using the Ks and kmax obtained from the batch data. The simulation used an effectiveness factor (η) of 1 indicating no loss in cell activity. Good fit was obtained between the simple analytical solution, equation above, and the experimental observations for the uninhibited case. The maximum conversion was 95±0.8% at a τ of 8 hours. For the cyclopropane inhibition embodiment, the same kmax as non-inhibited case was used, but with a Ks four times the uninhibited case to investigate the plausibility of competitive inhibition.

`C1CC1` [CP, cyclopropane]: the “Rates of MeOH consumption, Post Exposure” value in test [1] (CP exposure 2 h) was 0.4 (0.0) μmol/h/mg protein; in test [1] (CP exposure 6 h), 0.6 (0.1) μmol/h/mg protein; in test [1] (CP exposure 18 h) it was 0.3 (0.1) μmol/h/mg protein. Besides, the figures for the “MeOH Accumulation Efficiency (MeOH accumulation/CH4 consumed)” value in test [1] (CP exposure 2 h), in test [1] (CP exposure 6 h) and in test [1] (CP exposure 18 h) were 19 (4) %, 43 (1) % and 13 (1) %, respectively. Also, the “rate of methane consumption” value in test [1] (treatments exposed to CP for 2, 6 or 18 h) is 30-80 μmol CH4 consumed/d. Besides, the “effect on methane transformation” value in the test with OB3b expressing sMMO (cyclopropane-amended column vs uninhibited) is “Inhibition of methane transformation was observed”. Also, the Methane conversion with OB3b expressing sMMO (residence time 4 hours) came out at 68±11%; in the test with OB3b expressing sMMO (residence time 8 hours) it was 95±1%. In addition, the “methanol production selectivity (percentage of methane converted to methanol)” value in the test on OB3b expressing sMMO (residence time 4 hours) came to 102±39%; in the test on OB3b expressing sMMO (residence time 8 hours) it was 91±32%.
